The text below walks through data of publication PMC13164762, “Development and Validation of an LC-MS/MS Method for the Quantitation of JNJ-64619178 (JNJ) in Mouse Plasma: Characterization of In Vitro and In Vivo Pharmacokinetic Properties” (Molecules, 2026).

One series deals with Caco-2 cell monolayer. Put plainly: Caco-2 permeability study. Type of series: in vitro ADME, human. The conditions noted are these: absorptive direction (apical to basal), 10 µM. As to the method: (§1) Human colon carcinoma cells (Caco-2) were obtained from ATCC (American Type Culture Collection) (Manassas, VA, USA). Caco-2 cells were cultured in Dulbecco’s Modified Eagle’s Medium (DMEM), supplemented with 10% fetal bovine serum, 1% nonessential amino acids, 100 U mL^−1 penicillin, and 100 µg mL^−1 streptomycin. The cells were split upon reaching the 80–90% confluence to make them ready to seed. Afterwards, the cells were seeded at a density of 80,000 cells/well in a 12-well tissue culture plate with a 0.4 µm pore size, purchased from CELLTREAT Scientific Products (Pepperell, MA, USA), and incubated at 37 °C in an incubator with 5% CO2 conditions. […] The integrity of the monolayer was evaluated by measuring the transepithelial electrical resistance (TEER) value using EVOM2™ Epithelial Voltohmmeter purchased from World Precision Instruments Inc. (Sarasota, FL, USA).
(§2) JNJ was spiked at a final concentration of 10 µM to the apical side in a volume of 500 µL HBSS-HEPES (10 mM) buffer along with the positive control (propranolol and atenolol) in respective wells. […] After determined timepoints (0, 30, 60, 90, and 120 min), 100 µL aliquots were collected from the apical or basolateral sites, each time replacing with an equal volume of blank buffer. […]

Series [1] can be described thus: Caco-2 permeability study. In kind it is in vitro ADME, human. As to conditions: human, Caco-2, absorptive direction (apical to basal), read-out: apparent permeability (Papp), Caco-2. As to the method:
as §1, §2
For orientation: Caco-2 monolayers are a common model of the intestinal barrier.

A short description of series [2]: Microsomal metabolic stability, human liver microsomes. Type of series: in vitro ADME. The protocol:
Mouse and human liver microsomes were used for the metabolic stability assay. In brief, the incubation mixture (500 µL) consisted of phosphate-buffered saline (PBS) (100 mM, pH 7.4), microsomal protein (0.5 mg mL^−1), magnesium chloride (10 mM), and NADPH (2 mM). Following pre-incubation of the above reaction mixture for 10 min at 37 °C, the reaction was initiated by spiking JNJ at a final 1 µg mL^−1 concentration. Alongside the test compound, testosterone at a final concentration of 1 µg mL^−1 was incubated as a positive control. All experiments were performed in triplicate. At sampling times of 0, 5, 10, 20, 30, 45, and 60 min, 40 µL samples were collected and quenched with 300 µL ice-chilled acetonitrile supplemented with 10 µL IS. Simultaneously, samples from NADPH-free negative controls were also withdrawn and processed accordingly to confirm any non-enzymatic degradation. Finally, after 1 h of collection, samples were vortexed at 1000 rpm for 1 min and centrifuged at 2200× g for 15 min, and the collected supernatant was analyzed using LC-MS/MS.
The natural logarithm of the area ratio versus time was plotted, and the slope of the curve was calculated by a linear regression equation to generate the elimination rate constant, k (min^−1). CLint was calculated by the following equation:(2) CLint=0.693/t1/2×Volume of incubation mixture (mL)/microsomal protein (mg)
CLH,int of JNJ in the mouse and human liver was then estimated from CLint using the scaling factor.(3) CLH,int=CLint×Microsomal protein (mg)/Liver (g)×Liver weight (g)/Body weight (kg)
Here, 45 and 32 mg of microsomal protein per g of liver weight were applied, and 60 and 25 g of liver weight per kg body weight were used for mouse and human tissue, respectively.
(In general: Liver microsomes are a subcellular fraction often used to study metabolism.)

Series [3] can be described thus: Blood-to-plasma ratio (Rb/p) study. Type of series: in vitro ADME. As to conditions: balb/c mouse whole blood. The protocol: Freshly collected whole blood (400 µL) of balb/c mice was taken into an Eppendorf tube, and JNJ was spiked to obtain a final concentration at 5 µg mL^−1 following proper mixing. Blood and plasma samples were collected at 0, 30, and 60 min and processed using the previously described extraction procedure. Rb/p was then estimated by dividing the JNJ concentration in blood by the concentration obtained in plasma samples separated from blood using Equation (5), where CBlood is the drug concentration in blood and CPlasma is the drug concentration in plasma.(7) Rb/p=CBlood/CPlasma

A short description of series [4]: Stability of JNJ in mouse plasma at different storage conditions. In kind it is in vitro ADME. The protocol: The stability of JNJ in mouse plasma was evaluated at three replicates of LQC and HQCs in different storage conditions. Studies were conducted with the study of bench-top stability for 4 h at room temperature, freeze–thaw stability (three freeze–thaw cycles), autosampler stability (4 °C for 48 h) and long-term stability (at −80 °C for 1 month). Samples were considered stable if the % drug remaining after storage conditions was within ±15% compared to the freshly prepared QC samples.

“And” between values parts separate entries of the source, which are not always exact repeats. Equal entries are not always repeated.

In the case of `Nc1nc2cc(CC[C@H]3C[C@@H](n4ccc5c(N)ncnc54)[C@H](O)[C@@H]3O)ccc2cc1Br` [JNJ, JNJ-64619178], the “apparent permeability (Papp), Caco-2” value in the series on Caco-2 cell monolayer is on record as 3 ± 0.4 (×10^−6) cm s^−1. For the same molecule, the Papp A→B at 120 min, 10 µM in series [1] worked out at 3.4 ± 0.4 ×10⁻⁶ cm/s. For the same molecule, the “microsomal intrinsic clearance (CLint)” value in series [2] (HLM, mean ± SD, n = 3) was found to be 0.01 ± 0.001 mL min^−1 mg^−1 protein. The “hepatic intrinsic clearance (CLH,int)” value in series [2] (HLM, scaled from CLint (32 mg protein/g liver, 25 g liver/kg)) was 7 ± 0.6 mL min^−1 kg^−1 body weight and 7 ± 0.5 mL min^−1 kg^−1 body weight. Also, in series [2] (human, liver microsomes, pH 7.4, HLM, mean ± SD, n = 3, read-out: Half-life (t1/2)), the half-life at 1 µg mL^−1 is 2.47 ± 0.167 h. Also, the remaining at 1 h, 1 µg mL^−1 in series [2] (human, liver microsomes, pH 7.4, HLMs, NADPH, 1 µg mL^−1, n = 3, read-out: percent remaining concentration after 1 h incubation) came out at 72 ± 2%. Also, in series [3], the blood plasma ratio at 5 µg mL^−1 is approximately 0.7. In series [4] (HQC (375 ng mL^−1)), the “% Stability Recoveries (Mean ± SD), Autosampler (4 °C, 48 h)” value is reported as 110 ± 6%; the “% Stability Recoveries (Mean ± SD), Bench-Top (RT, 4 h)” value is 101 ± 15%; the “% Stability Recoveries (Mean ± SD), Freeze–Thaw (−80 ± 5 °C After 3 Cycle)” value is reported as 94 ± 8%; the “% Stability Recoveries (Mean ± SD), Long-Term Stability (−80 ± 5 °C, 30 Days)” value stood at 95 ± 8%. Also, in series [4] (LQC (0.5 ng mL^−1)), the “% Stability Recoveries (Mean ± SD), Autosampler (4 °C, 48 h)” value worked out at 110 ± 7%; the “% Stability Recoveries (Mean ± SD), Bench-Top (RT, 4 h)” value was found to be 91 ± 9%; the “% Stability Recoveries (Mean ± SD), Freeze–Thaw (−80 ± 5 °C After 3 Cycle)” value was 93 ± 4%; the “% Stability Recoveries (Mean ± SD), Long-Term Stability (−80 ± 5 °C, 30 Days)” value amounted to 97 ± 9%.
